# Data from article PMC13198257, “An aerosolized dual-action autotaxin inhibitor-PPARγ agonist for the treatment of pulmonary fibrosis” (Cell Reports Medicine, 2026).
# “Also recorded” adds a separate entry of the source.
# How the values were obtained:
# [1] = target: T1, ATX (Homo sapiens, UniProt Q13822); assay: Amplex Red assay: ATX inhibitory activity in vitro; type: biochemical; settings: for IC50: Amplex Red assay; for IC50 / Inhibition of ATX enzymatic activity: in vitro; for % inhibition of ATX: at 100 μΜ, Table S1; for ATX activity, fold lower than that of TGZ: ratio of IC50
# T1 construct: purchased Sino Biological 11308-H07H
# Experimental: (§1) ATX inhibitory activity in vitro of examined compounds was assessed with the Amplex Red assay,[32]^,[35]^,[36] as recently published in detail.[37] The assay was done in Amplex Red Assay buffer (Tris 50 mM, CaCl2 5 mM, pH 8). Briefly, 50 μL of increasing concentrations of each compound were placed in separate wells of a black 96-well plate. […] 50 μL of the LPC-containing assay buffer (200 μM) were added to the wells and incubated for 30 min at 37°C to allow the enzyme to initially interact with its substrate. 50 μL of the detection mix (Amplex Red 200 μM, choline oxidase 0.4 U/mL, horseradish peroxidase 4 U/mL) were added to the plate wells. Fluorescence was measured in a Tecan M200 Fluorimeter using excitation at 530 nm and reading at 590 nm, every 5 min for 30 min. The velocity of the reaction and the remaining ATX activity were calculated at the linear phase of the reaction. Dose-response inhibition graphs were plotted with GraphPad Software.
# [2] = target: T2, PPARγ (Homo sapiens, UniProt P37231); assay: PPARγ Gal4 hybrid reporter gene assay; type: cell-based; settings: Gal4-hybrid reporter, HEK293T cells
# T2 construct: expressed in transfected cells; host or cells: HEK293T
# T2 sequence (P37231 238-503 limits assumed): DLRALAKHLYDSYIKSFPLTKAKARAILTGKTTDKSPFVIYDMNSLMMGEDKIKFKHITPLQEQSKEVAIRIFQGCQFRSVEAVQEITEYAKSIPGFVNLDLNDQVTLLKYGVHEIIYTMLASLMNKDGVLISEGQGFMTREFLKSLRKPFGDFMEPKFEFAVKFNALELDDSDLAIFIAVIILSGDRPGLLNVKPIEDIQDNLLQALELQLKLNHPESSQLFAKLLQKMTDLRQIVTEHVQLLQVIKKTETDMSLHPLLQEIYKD
# Experimental: All well-established assays were performed following straightforward methodology.[49] Plasmids pFA-CMV-hPPARα-LBD, pFA-CMV-hPPARγ-LBD and pFA-CMV-hPPARδ-LBD code for the hinge region and ligand binding domain of the canonical isoform of the respective nuclear receptor and were used to express the Gal4 hybrid receptors. pFR-Luc (Stratagene, La Jolla, CA, USA) and pRL-SV40 (Promega, Madison, WI, USA) were used as Gal4-responsive reporter and as internal control in the hybrid reporter gene assays, respectively. HEK293T cells were seeded in 96-well plates (3×10^4 cells/well). Before transfection, the medium was changed to Opti-MEM without supplements, and transient transfection with the plasmids pFR-Luc, pRL-SV40, and one pFA-CMV-NR-LBD clone was carried out using Lipofectamine LTX reagent (Invitrogen, Carlsbad, CA, USA) according to the manufacturer’s protocol. […] Normalisation of transfection efficiency and cell growth was performed by dividing firefly luminescence by Renilla luminescence and multiplying the result by 1000, yielding relative light units (RLU). Fold activation was obtained by dividing the mean RLU of the test compound by the mean RLU of the untreated control.
# [3] = system: choline oxidase and horseradish peroxidase; assay: Interference with the 2nd and 3rd reaction of the Amplex Red assay; type: biochemical
# Experimental: as §1
# Figure S3. Kinetic analysis of ATX inhibition. Related to Figures 3 and 4
# (B) Kinetics for the second (oxidation of choline catalysed by choline oxidase) and third reaction (the conversion of the
# Amplex substrate to the fluorescent resorufin catalysed by horseradish peroxidase, HRP) of the Amplex Red Lyso-
# phospholipase D assay for representative compounds (TGZ, 4, 5 and EL244). The first reaction includes the conversion of
# LPC to LPA catalysed by ATX.
# Kinetic graphs are indicative of three technical replicates. […]
# [4] = in vitro; settings: mouse
# [5] = Mouse metabolic clearance and half-life in vitro
# [6] = target: hERG (Homo sapiens, UniProt Q12809); assay: hERG inhibition; type: biochemical
# [7] = AMP membrane permeability; type: in vitro ADME; settings: 10 μΜ
# [8] = Cytotoxicity in HepG2 hepatocytes; type: cell-based; settings: human, HepG2 cells
# [9] = target: T1, ATX; assay: Mode of ATX inhibition, Lineweaver-Burk plots (various LPC concentrations); type: biochemical
# Experimental: To determine the mode of inhibition of ATX, various concentrations of TGZ, compound 5 and EL244 were tested against various LPC concentrations. Specifically, TGZ was tested against 6.25, 12.5, 25, 50 and 100 μM LPC, compound 5 was tested against 3.125, 6.25, 12.5, 25, 50 and 100 μM LPC, while EL244 was tested against 25, 50, 100 and 150 μM LPC. Lineweaver–Burk graphs depicting the reciprocal of velocity (1/V) against the reciprocal of substrate concentration (1/S) were plotted with GraphPad Software.
# Chain of hERG (Q12809 whole entry): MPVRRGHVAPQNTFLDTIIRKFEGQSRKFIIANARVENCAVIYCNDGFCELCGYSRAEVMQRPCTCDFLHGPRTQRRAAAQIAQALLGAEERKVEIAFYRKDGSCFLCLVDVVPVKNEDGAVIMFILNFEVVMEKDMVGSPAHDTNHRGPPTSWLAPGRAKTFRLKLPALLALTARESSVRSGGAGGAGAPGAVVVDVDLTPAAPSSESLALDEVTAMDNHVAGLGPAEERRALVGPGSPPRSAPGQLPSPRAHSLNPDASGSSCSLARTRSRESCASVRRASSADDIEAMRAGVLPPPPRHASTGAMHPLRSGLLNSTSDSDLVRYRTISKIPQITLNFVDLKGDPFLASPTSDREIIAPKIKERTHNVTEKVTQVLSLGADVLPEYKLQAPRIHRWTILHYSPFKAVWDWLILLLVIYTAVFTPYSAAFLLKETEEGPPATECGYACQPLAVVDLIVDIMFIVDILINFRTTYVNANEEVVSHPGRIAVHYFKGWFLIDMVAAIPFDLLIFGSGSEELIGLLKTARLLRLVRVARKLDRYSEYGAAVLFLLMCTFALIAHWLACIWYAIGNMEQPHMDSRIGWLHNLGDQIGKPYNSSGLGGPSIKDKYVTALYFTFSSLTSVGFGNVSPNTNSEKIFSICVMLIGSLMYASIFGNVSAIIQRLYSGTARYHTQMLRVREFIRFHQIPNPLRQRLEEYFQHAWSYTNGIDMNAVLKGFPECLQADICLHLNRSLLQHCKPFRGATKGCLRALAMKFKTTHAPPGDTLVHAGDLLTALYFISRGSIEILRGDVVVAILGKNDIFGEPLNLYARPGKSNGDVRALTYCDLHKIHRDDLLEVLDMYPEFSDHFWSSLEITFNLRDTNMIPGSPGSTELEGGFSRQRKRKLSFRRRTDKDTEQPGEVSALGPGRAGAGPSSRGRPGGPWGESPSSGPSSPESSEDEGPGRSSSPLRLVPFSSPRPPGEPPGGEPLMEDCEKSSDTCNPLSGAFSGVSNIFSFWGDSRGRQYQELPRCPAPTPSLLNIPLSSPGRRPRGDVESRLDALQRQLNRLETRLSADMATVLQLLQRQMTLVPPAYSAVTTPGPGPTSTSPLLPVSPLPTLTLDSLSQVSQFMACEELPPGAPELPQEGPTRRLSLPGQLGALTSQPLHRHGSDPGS
compound,measurement,setting,value
"COc1cc(-c2ccc(N=Nc3ccc4c(S(=O)(=O)O)cc(S(=O)(=O)O)c(N)c4c3O)c(OC)c2)ccc1N=Nc1ccc2c(S(=O)(=O)O)cc(S(=O)(=O)O)c(N)c2c1O [CSB, Chicago Sky Blue 6B, reference compound]",IC50,[1],1600 nM
same,% inhibition of ATX,[1],fully inhibited ATX activity
same,% inhibition of ATX,[1]; listed as 425,99.21%
"N#Cc1sc(NCCOc2ccc(/C=C3/SC(=O)NC3=O)cc2)nc1-c1ccc(F)cc1 [Compound 1, (E)-2-((2-(4-((2,4-dioxothiazolidin-5-ylidene)methyl)phenoxy)ethyl)amino)-4-(4-fluorophenyl)thiazole-5-carbonitrile]",IC50,[1],2000 nM
same,"ATX activity, fold lower than that of TGZ",[1],4 fold
"O=C1NC(=O)/C(=C\c2ccc(OCCN3CCN(C(=O)OCc4cc(Cl)cc(Cl)c4)CC3)cc2)S1 [Compound 2, 3,5-Dichlorobenzyl (E)-4-(2-(4-((2,4-dioxothiazolidin-5-ylidene)methyl)phenoxy)ethyl)piperazine-1-carboxylate]",IC50,[1],2000 nM
same,"ATX activity, fold lower than that of TGZ",[1],4 fold
"Cc1c(C)c2c(c(C)c1O)CCC(C)(COc1ccc(/C=C3/SC(=O)N(Cc4ccc(F)cc4)C3=O)cc1)O2 (stereo not drawn) [Compound 3, (E)-3-(4-fluorobenzyl)-5-(4-((6-hydroxy-2,5,7,8-tetramethylchroman-2-yl)methoxy)benzylidene)thiazolidine-2,4-dione]",IC50,[1],17800 nM
"N#Cc1sc(NCCOc2ccc(CC3SC(=O)NC3=O)cc2)nc1-c1ccc(F)cc1 (stereo not drawn) [Compound 4, 2-((2-(4-((2,4-dioxothiazolidin-5-yl)methyl)phenoxy)ethyl)amino)-4-(4-fluorophenyl)thiazole-5-carbonitrile]",EC50,[2],1000 nM
same,PPARγ fold activ. (max. activation),[2],5.6 ± 0.5 fold
same,Interference on the 2nd and 3rd steps of the Amplex Red assay,[3],Minimal interference; also recorded: not involved at all in the second and third reaction
same,IC50,[1],940 nM
"COC(=O)c1ccc2c(c1)NC(=O)/C2=C(\Nc1ccc(N(C)C(=O)CN2CCN(C)CC2)cc1)c1ccccc1 [Nintedanib, reference compound]",half-life at 0.1 μM,[4],58 min
same,microsomal CLint at 0.1 μM,[5],122 µL/min/mg
same,IC50,[6],4000 nM
same,AMP,[7],7.8e-07 cm/s
same,CC50,[8],4000 nM
"O=C(CCN1CCN(C(=O)OCc2cc(Cl)cc(Cl)c2)CC1)c1ccc2[nH]c(=O)oc2c1 [PF-8380, reference compound]",half-life at 0.1 μM,[5],< 10 min
same,microsomal CLint at 0.1 μM,[5],766 µL/min/mg
same,IC50,[6],500 nM
same,CC50,[8],> 100000 nM
"CCc1ccc(CCOc2ccc(CC3SC(=O)NC3=O)cc2)nc1 (stereo not drawn) [PGZ, pioglitazone, reference compound]",IC50,[1],> 100000 nM
same,Inhibition of ATX enzymatic activity,[1],not to inhibit ATX enzymatic activity
"CN(CCOc1ccc(CC2SC(=O)NC2=O)cc1)c1ccccn1 (stereo not drawn) [RGZ, rosiglitazone, reference compound]",IC50,[1],> 100000 nM
same,Inhibition of ATX enzymatic activity,[1],not to inhibit ATX enzymatic activity
"Cc1c(C)c2c(c(C)c1O)CCC(C)(COc1ccc(CC3SC(=O)NC3=O)cc1)O2 (stereo not drawn) [TGZ, troglitazone, reference compound]",Mode of ATX inhibition,[9],non-competitive
same,IC50,[1],530 nM
same,% inhibition of ATX,[1],fully inhibited ATX activity
same,% inhibition of ATX,[1]; listed as 1467,99.17%
same,CC50,[8],34000 nM
